ChEMBL document CHEMBL1201862, “PubChem BioAssay data set” (2004)
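Briefly, cells in 96-well plates were exposed to five compound concentrations for 48 h, and endpoints were estimated by linear interpolation. Abbreviation: GI50, concentration required for 50% inhibition of growth.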 Calls of active or inactive are those of the source. No stated cut-off is given here; in the data, active = GI50 up to about 1.1 µM and inactive = higher.

Key:
Experiment in all cases: inhibition of tumour cell growth, NCI panel, 48 h
MOLT-4 = system: MOLT-4
RXF 393 = system: RXF 393
UO-31 = system: UO-31
SW-620 = system: SW-620
SK-MEL-28 = system: SK-MEL-28
OVCAR-3 = system: OVCAR-3
SF-295 = system: SF-295
HOP-92 = system: HOP-92
NCI-H460 = system: NCI-H460
SF-539 = system: SF-539
SK-MEL-2 = system: SK-MEL-2
U-251 = system: U-251
K562 = system: K562
786-0 = system: 786-0
UACC-257 = system: UACC-257
NCI-H226 = system: NCI-H226
CCRF-CEM = system: CCRF-CEM
HL-60 = system: HL-60
BT-549 = system: BT-549

| SMILES | GI50 (MOLT-4) | GI50 (RXF 393) | GI50 (UO-31) | GI50 (SW-620) | GI50 (SK-MEL-28) | GI50 (OVCAR-3) | GI50 (SF-295) | GI50 (HOP-92) | GI50 (NCI-H460) | GI50 (SF-539) | GI50 (SK-MEL-2) | GI50 (U-251) | GI50 (K562) | GI50 (786-0) | GI50 (UACC-257) | GI50 (NCI-H226) | GI50 (CCRF-CEM) | GI50 (HL-60) | GI50 (BT-549) |
| --- | --- | --- | --- | --- | --- | --- | --- | --- | --- | --- | --- | --- | --- | --- | --- | --- | --- | --- | --- |
| CC(=O)OC1(Sc2ccccc2)CC2[C@H]3COC(C)(C)O[C@H]3CC[C@@]2(C)CC1=O (some centres undefined) | 9.95 µM (inactive) | 47.2 µM (inactive) | 19 µM (inactive) | 52.4 µM (inactive) | > 100 µM (inactive) | 37.2 µM (inactive) | 55.8 µM (inactive) | 45.2 µM (inactive) | 64.1 µM (inactive) | 26.1 µM (inactive) | 81.8 µM (inactive) | > 10 µM (inactive) | 30.1 µM (inactive) | 33.7 µM (inactive) | 49.9 µM (inactive) | 20.2 µM (inactive) | – | – | – |
| CN1CCC(OC(=O)Oc2ccccc2)(c2ccccc2)CC1 | 13.1 µM (inactive) | 37.3 µM (inactive) | 19.6 µM (inactive) | 25.7 µM (inactive) | 20.6 µM (inactive) | 61.5 µM (inactive) | 24 µM (inactive) | – | 13.5 µM (inactive) | 13.6 µM (inactive) | 17.9 µM (inactive) | 21.9 µM (inactive) | 24.7 µM (inactive) | > 100 µM (inactive) | 19.7 µM (inactive) | 22.7 µM (inactive) | 21.8 µM (inactive) | 16.5 µM (inactive) | – |
| COc1ccc(/N=c2\ssc3c(=S)ssc23)cc1 | 3.72 µM (inactive) | 21.2 µM (inactive) | – | 15.3 µM (inactive) | 25.3 µM (inactive) | 25.2 µM (inactive) | 53.3 µM (inactive) | 15.5 µM (inactive) | – | 27.4 µM (inactive) | 60 µM (inactive) | 28.4 µM (inactive) | 3.99 µM (inactive) | 34.1 µM (inactive) | > 10 µM (inactive) | > 100 µM (inactive) | 3.68 µM (inactive) | 4.09 µM (inactive) | – |
| O=C(C1OC1c1ccc(Br)cc1O)C12CC3CC(CC(C3)C1)C2 (centres undefined) | 16.1 µM (inactive) | 21.7 µM (inactive) | 13.2 µM (inactive) | 18.7 µM (inactive) | 19.4 µM (inactive) | 31.5 µM (inactive) | 17.9 µM (inactive) | 17.7 µM (inactive) | 27.6 µM (inactive) | 95.1 µM (inactive) | – | 15.7 µM (inactive) | 15.4 µM (inactive) | 17.6 µM (inactive) | 29 µM (inactive) | 28.5 µM (inactive) | 23.5 µM (inactive) | 16.9 µM (inactive) | – |
| Cc1cc(C)c2c(c1)Nc1ccccc1P2c1ccccc1 (centres undefined) | 4.51 µM (inactive) | 29.2 µM (inactive) | 19.1 µM (inactive) | 39.8 µM (inactive) | 44.1 µM (inactive) | 24.6 µM (inactive) | 20 µM (inactive) | 30.9 µM (inactive) | 22.3 µM (inactive) | – | – | 31.7 µM (inactive) | 24.5 µM (inactive) | 36.5 µM (inactive) | – | – | – | 23.9 µM (inactive) | – |
| COC(=O)n1c(CBr)c(Br)c2ccccc21 | 26.2 µM (inactive) | – | 18.2 µM (inactive) | 47.2 µM (inactive) | > 100 µM (inactive) | 20.3 µM (inactive) | 23.7 µM (inactive) | 20.1 µM (inactive) | 24.3 µM (inactive) | 31.3 µM (inactive) | 23.3 µM (inactive) | 27 µM (inactive) | 25.4 µM (inactive) | 45 µM (inactive) | 39.2 µM (inactive) | 13.1 µM (inactive) | 23.9 µM (inactive) | 22.4 µM (inactive) | – |
| COC(=O)CCCc1ccc2c(c1)CC1(Cc3ccccc3C1)C2 | 0.333 µM (active) | 77.1 µM (inactive) | 86.1 µM (inactive) | – | – | 62.2 µM (inactive) | > 100 µM (inactive) | > 100 µM (inactive) | – | > 100 µM (inactive) | 19.5 µM (inactive) | > 100 µM (inactive) | – | > 100 µM (inactive) | 32.2 µM (inactive) | > 100 µM (inactive) | 29.6 µM (inactive) | – | – |
| CC#C[C@]1(O)CCC2[C@@H]3CCC4=CC(=O)CCC4=C3[C@@H](c3ccc(N(C)C)cc3)C[C@@]21C (some centres undefined) | – | – | 8.2 µM (inactive) | 13.3 µM (inactive) | 14.4 µM (inactive) | 8.28 µM (inactive) | 10.7 µM (inactive) | 1.43 µM (inactive) | 9.86 µM (inactive) | 12.6 µM (inactive) | – | 12.5 µM (inactive) | 20.9 µM (inactive) | 15.2 µM (inactive) | 13.2 µM (inactive) | – | 9.75 µM (inactive) | 16 µM (inactive) | 16.6 µM (inactive) |
| CN(C)CCCNC(=O)CCNC(=O)c1cc(NC(=O)c2cc(NC(=O)c3cc(NC(=O)CCCNC(=O)c4cc(NC(=O)c5cc(NC(=O)c6nccn6C)cn5C)cn4C)cn3C)cn2C)cn1C | > 100 µM (inactive) | > 100 µM (inactive) | > 100 µM (inactive) | > 100 µM (inactive) | > 100 µM (inactive) | > 100 µM (inactive) | > 100 µM (inactive) | > 100 µM (inactive) | > 100 µM (inactive) | > 100 µM (inactive) | > 100 µM (inactive) | > 100 µM (inactive) | > 100 µM (inactive) | > 100 µM (inactive) | > 100 µM (inactive) | > 100 µM (inactive) | > 100 µM (inactive) | > 100 µM (inactive) | – |
| CC(C)=C[C@@H]1C[C@H](n2cc(C)c(=O)[nH]c2=O)ON1CCO | > 100 µM (inactive) | > 100 µM (inactive) | > 100 µM (inactive) | > 100 µM (inactive) | > 100 µM (inactive) | > 100 µM (inactive) | > 100 µM (inactive) | > 100 µM (inactive) | > 100 µM (inactive) | > 100 µM (inactive) | > 100 µM (inactive) | > 100 µM (inactive) | > 100 µM (inactive) | > 100 µM (inactive) | > 100 µM (inactive) | > 100 µM (inactive) | > 100 µM (inactive) | 3.08 µM (inactive) | – |
| O=C(O)CO/N=C1/C(=C2/C(=O)Nc3ccccc32)Nc2ccccc21 | 41.4 µM (inactive) | 19.5 µM (inactive) | 65 µM (inactive) | 62.5 µM (inactive) | 50.8 µM (inactive) | 18.8 µM (inactive) | 89.9 µM (inactive) | 37.9 µM (inactive) | 72.8 µM (inactive) | 70.3 µM (inactive) | 25.8 µM (inactive) | 82.6 µM (inactive) | 79.8 µM (inactive) | 63.4 µM (inactive) | > 100 µM (inactive) | – | 43.1 µM (inactive) | 64.4 µM (inactive) | 51.9 µM (inactive) |
| COC1=NN2C(OC)(c3ccccc3)c3c(-c4ccccc4)sc(-c4ccccc4)c3C2(c2ccccc2)S1 (centres undefined) | > 100 µM (inactive) | – | > 100 µM (inactive) | > 100 µM (inactive) | > 100 µM (inactive) | > 10 µM (inactive) | > 100 µM (inactive) | > 100 µM (inactive) | > 100 µM (inactive) | > 100 µM (inactive) | > 100 µM (inactive) | > 100 µM (inactive) | > 100 µM (inactive) | > 100 µM (inactive) | > 100 µM (inactive) | – | > 100 µM (inactive) | > 100 µM (inactive) | – |
